The test system of the test is BJ-TERT-LT-ST fibroblast viability, ATP luminescence. Nature of the test: BJ-TERT-LT-ST fibroblast viability loss – cell-based, RAS-independent, luminescence, dose response (AID 1935).

Results filed as inconclusive are left out. The source made the active and inactive calls. How the calls were made is not given here. Bounds are passed on as bounds.

Here are results for two molecules from PubChem BioAssay AID1935 (Broad Institute, 2009).

In general, EC50 refers to the concentration that produces a half-maximal response.

Turning to `CCc1ccc(/C=C2\SC(=S)N(CCC(=O)NCCCN3CCOCC3)C2=O)cc1`, the EC50 is > 15 µM (inactive).
The result for `CCc1ccc(/C=C2/SC(=S)N(CCC(=O)NCCCN3CCOCC3)C2=O)cc1` reads > 15 µM (inactive).
